# Measured values as given in US4603132A, “Phenothiazine compounds with anti-bronchospastic activity and pharmaceutical compositions containing them” (priority 1984, dated 1986).
# Like-named read-outs stand apart in the source and are kept apart here.
# Columns and labels:
# [1] = system: bronchial asthma; conditions: literature, in words; cited from earlier work
# [2] = system: hypotension induced by ACh i.v.; assay: inhibition of the hypotension induced by ACh i.v. in the anestetized rat (systemic effect; absorption by inhalation); assay type: in vivo; conditions: for absorption through inhalatory route: i.v. vs inhalation, in words
# From the text: The absorption of compound (I) by inhalation in comparison with mequitazine has been studied by comparing their sistemic effects with intravenous and inhalatory routes. The inhibiting effect of the tested compounds on the hypotension induced by ACh i.v. in the anestetized rat has been used.
# [3] = system: isolated ileum of guinea pig (ACh); assay: spasm induced by ACh in the isolated ileum of guinea pig
# [4] = system: isolated ileum of guinea pig (histamine); assay: spasm induced by histamine in the isolated ileum of guinea pig
# [5] = system: isolated ileum of guinea pig (serotonine); assay: spasm induced by serotonine in the isolated ileum of guinea pig
# [6] = system: isolated ileum of guinea pig (PGF2 alpha); assay: spasm induced by PGF2 alpha in the isolated ileum of guinea pig
# [7] = acute toxicity test in the mouse; assay type: in vivo; conditions: for LD50: in vivo
# [8] = system: bronchospasm; assay: anti-bronchospastic activity (general statement); conditions: in words
# [9] = system: isolated trachea of guinea pig (KCl); assay: spasm induced by KCl in the isolated trachea of guinea pig; conditions: for IC50: Cavia porcellus
# [10] = system: bronchospasm induced by ACh aerosol; conditions: for activity in bronchospasm induced by ACh aerosol: awake guinea pig, in words, i.v. in b22, mequitazine at doses up to 20 times higher or essentially subtoxic
# [11] = system: isolated trachea of guinea pig (histamine); assay: spasm induced by histamine in the isolated trachea of guinea pig; conditions: for IC50: Cavia porcellus
# [12] = system: bronchospasm induced by histamine aerosol; conditions: for ED50: Cavia porcellus, iv
# [13] = system: isolated trachea of guinea pig (methacholine); conditions: for IC50: Cavia porcellus; for activity greater than mequitazine: isolated guinea pig trachea, methacholine
# [14] = system: bronchospasm induced by ACh i.v.; conditions: for ED50: Cavia porcellus, iv, anestetized guinea pig, ACh i.v.
# [15] = system: H1 receptors; conditions: literature, in words, cited from earlier work
# [16] = listed as 3-(10-H-phenothiazin-methyl)-1-methyl-1-azoniabicyclo[2.2.2]-octane iodide
# [17] = vs classic anti-histaminic drugs
Structure (SMILES),effect in bronchial asthma / bronchial hyperreactivity [1],absorption through inhalatory route ([2]; anestetized rat),LD50 ([7]; iv),LD50 ([7]; oral route),anti-bronchospastic activity [8],IC50 [9],IC50 [11],ED50 [12],IC50 [13],ED50 ([14]; compound by inhalatory route),ED50 ([14]; compound by venous route),further results
CN(C)CCC(c1ccc(Cl)cc1)c1ccccn1 (centres unmarked) [clopheniramine],singularly inefficacious in the bronchial asthma,,,,,,,,,,,
"C[N+]12CCC(CC1)C(CN1c3ccccc3Sc3ccccc31)C2 (centres unmarked) [compound (I), 3-(10-H-phenothiazin-methyl)-1-methyl-1-azoniabicyclo[2.2.2]-octane iodide]",,very poorly absorbed,3.15 mg/kg,~700 mg/kg,powerful anti-bronchospastic activity,38 µM,0.074 µM,0.12 µmol/kg,0.034 µM,0.026 µmol/kg,0.051 µmol/kg,"ED50 ([2]; Rattus norvegicus, iv): 1.17 µmol/kg; absorption lower than that of mequitazine ([2]; inhalatory route): at least 24 times; ED50 ([2]; inhibition of hypotension, anestetized rat, inhalatory administration): can not be calculated (25 μmol/kg); times more active than mequitazine [3]: 7 times; times more active than mequitazine [4]: 15 times; times more active than mequitazine [5]: 6 times; times more active than mequitazine [6]: 2 times; absorption by oral route ([7]; inferred from i.v. vs oral LD 50, in words): very modest; activity greater than mequitazine ([9]; isolated guinea pig trachea, KCl): 3 times; ED50 ([10]; Cavia porcellus, iv): 0.41 µmol/kg; activity in bronchospasm induced by ACh aerosol [10]: intense and dose-dependent activity; activity in bronchospasm induced by ACh aerosol [10, 16]: remarkable power; activity greater than mequitazine ([11]; isolated guinea pig trachea, histamine): 50 times; activity higher than that of mequitazine ([12]; awake guinea pig, histamine aerosol, i.v.): about 5 times; activity greater than mequitazine [13]: 1200 times; activity greater than mequitazine [13, 16]: 1000 times; anti-bronchospastic activity higher than that of mequitazine ([14]; inhalatory route): 20 times; activity higher than that of mequitazine ([14]; venous route): 13 times"
COc1ccc(CN(CCN(C)C)c2ccccn2)cc1 [mepyramine],singularly inefficacious in the bronchial asthma,,,,,,,,,,,
"c1ccc2c(c1)Sc1ccccc1N2CC1CN2CCC1CC2 (centres unmarked) [mequitazine, reference compound]",protective action,complete absorption,23.7 mg/kg,~350 mg/kg,very slightly active or even inactive,110 µM,3.7 µM,0.65 µmol/kg,40 µM,0.499 µmol/kg,0.674 µmol/kg,"ED50 ([2]; inhaled or nasal, inhibition of hypotension, anestetized rat, inhalatory administration, read-out: ED 50): 4.06 µmol/kg; ED50 ([2]; iv, inhibition of hypotension, anestetized rat, i.v. route, read-out: ED 50): 4.01 µmol/kg; action on H1 receptors [15]: histamine antagonism at the level of the H1 receptors; duration of action [15, 17]: long lasting action; side effects of the CNS level [15, 17]: scarcity of side effects"
CC(CN1c2ccccc2Sc2ccccc21)N(C)C (centres unmarked) [promethazine],singularly inefficacious in the bronchial asthma,,,,,,,,,,,
